# Data published in patent publication US8334316B2, “Substituted organosulfur compounds and methods of using thereof” (ACEA Biosciences, Inc., priority 2004, dated 2012).
# “Also recorded” adds a separate entry of the source.
# Columns and labels:
# Type in all cases: cell-based
# [1] = tested on: HT1080 (human fibrosarcoma cell line); assay: MTT assay IC50 (48 h), HT1080; settings: HT-1080, HT1080, 48 hours
# Description: In another assay format, a test compound is assayed for its cytotoxicity and/or cytostatic effect on certain cancer cell types, using endpoint assay methods. Cells in the NCI cancer cell panel may be used. Cells after a pre-incubation for certain length of time (for example, 8 hrs or 24 hrs) are incubated with a test compound at serially-diluted concentrations (for example, five 10-fold dilutions) for 24 hrs and/or 48 hrs, and/or other specific length of time. The dose dependent cytotoxicity and/or cytostatic effects of test compounds can then be tested and evaluated using the 3-(4,5-dimethylthiazol-2-yl)-2,5-diphenyltetrazolium bromide (MTT) assay method, as described by, for example, Boyd (In Principle of Practice of Oncology, Devita, J. T., Hellman, S. and Rosenberg S. A. (Eds), 1989, Vol, 3, PPO Update, No. 10).
# The anticancer potency of DBTS and its derivatives were tested in 8 different types of human cancer cell lines using the RT-CES system and MTT assay. The 8 cancer cell lines were HT1080 (the human fibrosarcoma cell line), H460 (human non small cell lung cancer cell line), OVCAR4 (the human ovarian cancer cell line), MCF7 (human breast cancer cell line) MDA-MB231 (M231, the human breast cancer cell line) A2780 (the human […] cancer cell line) Jurkat (the human T cell leukemia cell line). The test DBTS derivatives include ACEA100107, ACEA100108, ACEA100109, ACEA100111, ACEA100115, ACEA100116, ACEA100117, ACEA100118, ACEA100119, and ACEA100120.
# For the MTT assay, the cells were seeded into the regular 96× well plates at the cell seeding density ranging from 5000 cells/well to 15,000 cells/well. The cells were incubated at 5% CO2 and 37° C. for overnight. The derivatives were serially diluted and added to the cells. The treatment was terminated after 48 hours of incubation by adding MTT staining reagent. After 4 hours, the staining was stopped by the stop buffer and then the calorimetric measurement was carried out on a microtiter plate reader at dual wave length, 650 nm and 550 nm.
# [2] = tested on: MDA-MB231 (M231, human breast cancer cell line); assay: RT-CES system cell proliferation/cytotoxicity IC50, MDA-MB231; settings: MDA-MB-231, time point of maximum inhibition
# Excerpt: (§1) The RT-CES system comprises three components, an electronic sensor analyzer, a device station and 16× or 96× microtiter plate devices. Microelectrode sensor array was fabricated on glass slides with lithographical microfabrication methods and the electrode-containing slides are assembled to plastic trays to form electrode-containing wells. Each 16× (or 96×) microtiter plate device used in RT-CES system comprises up to 16 (or 96) such electrode-containing wells. The device station receives the 16× or 96× microtiter plate devices and is capable of electronically switching any one of the wells to the sensor analyzer for impedance measurement. In operation, the devices with cells cultured in the wells are placed into a device station that is located inside an incubator. Electrical cables connect the device station to the sensor analyzer. Under the RT-CES software control, the sensor analyzer can automatically select wells to be measured and continuously conduct impedance measurements. The impedance data from the analyzer is transferred to a computer, analyzed and processed by the integrated software.
# (§2) To quantify cell status based on the measured cell-electrode impedance, a parameter termed Cell Index is derived, according to
# (§3) [formula] where Rb(f) and Rcell(f) are the frequency dependent electrode resistances (a component of impedance) without cells or with cell present, respectively. N is the number of the frequency points at which the impedance is measured. Thus, Cell Index is a quantitative measure of the status of the cells in an electrode-containing well. Under the same physiological conditions, more cells attached on to the electrodes leads to larger Rcell(f) value, leading to a larger value for Cell Index. Furthermore, for the same number of cells present in the well, a change in the cell status such as morphology will lead to a change in the Cell Index. For example, an increase in cell adhesion or cell spreading leads to larger cell-electrode contact area which will lead to an increase in Rcell(f) and thus a larger value for Cell Index. The Cell Index may also be calculated using a formula different from the one described here. Other methods for calculating the Cell Index based on impedance measurement can be found in PCT application number PCT/US04/37696, fined on Nov. 12, 2004, PCT application number PCT/US05/04481, filed on Feb. 9, 2005, U.S. patent application Ser. No. 10/987,732, filed on Nov. 12, 2004, and U.S. patent application Ser. No. 11/055,639, filed on Feb. 9, 2005.
# Dibenzyl trisulfide solution in DMSO was added into wells following the incubation period. The cell status was monitored prior to and after the compound addition using RT-CES system. The cell indexes of different wells were between 0.65 and 0.82 just before the compound addition. […] The cell index was normalized against the cell index values at a time point just after compound addition (about 19.6 hrs after cell seeding).
# For the assay performed on the RT-CES system, the cells were seeded into the 16× or 96× microtiter plate devices (electronic plates, i.e., the plates comprise microelectrode sensor arrays in the wells of the plate) at the seeding density ranging from 5000 cells/well to 15,000 cells/well. The cells were incubated at 5% CO2 and 37° C. for overnight till the cell indices reached the growth phase where the cell index was between 0.8 and 1.2. Serially diluted compounds were then added to the cells followed by dynamic monitoring of the effect of the compounds on the cell proliferation and cytotoxicity. The time-dependent IC50 values for each derivative were calculated based the dose responses of cell index value at different time points after compound treatment.
# The anticancer potency of a DBTS derivative, ACEA100108 was tested in 7 cancer cell lines on the […]. The cell lines were HT1080, H460, OVCAR4, MCF7, MDA-MB231, HepG2, and A2780. […]
# [3] = tested on: HepG2 cells (human hepatosarcoma); assay: RT-CES system cell proliferation/cytotoxicity, HepG2; settings: for IC50: Homo sapiens, HepG2, time point of maximum inhibition
# Excerpt: as §1, §2, §3
# Different types of human cancer cells, including NCI-H460 (non-small cell lung cancer cells), MV522 SW (non-small cell lung cancer cells), MCF7 (breast cancer cells), A549 (non-small cell lung cancer cells), PC3 (prostate cancer cells), A431 (epidermoid cancer cells), HT1080 (fibrosarcoma cells), MDA.MB2321 (breast cancer cells), HT29 (colon cancer cells), HCC2998 (colon cancer cells), OVCAR4 (ovarian cancer cells), A2780 (ovarian cancer cells) and HepG2 (human hepatosarcoma) with different numbers (4000 to 20,000 per well) were seeded into 16× or 96× microtiter device and monitored by RT-CES™ system. The cells were allowed to grow for about 24 hours prior to the addition of dibenzyl trisulfide dissolved in DMSO solution (final DMSO concentration: 0.2%; final dibenzyl trisulfide concentration: between 1.5625 μM and 100 μM). The cell-electrode impedance was continuously measured and the corresponding, time dependent cell-index values were derived and recorded.
# HepG2 cells (human hepatosarcoma cells) were seeded into wells of 16× or 96× microtiter plate devices (electronic plates, i.e., the plates comprise microelectrode sensor arrays in the wells of the plate) with an initial seeding density of 15,000 cells per well and were pre-incubated in incubator under standard cell culture conditions for about 22 hrs. Dibenzyl trisulfide solution in DMSO was added into wells following the incubation period. […]
IC50 [1],SMILES,IC50 [2],IC50 [3],Effect on HepG2 cell proliferation (cell index) ([3]; within the exposing dose range (1.5625-100 μM))
2.2 µM,"Cc1cccc(CSSSCc2cccc(C)c2)c1 [ACEA100116, di(m-methylbenzyl)trisulfide]",1.06 µM,> 50 µM,
47.5 µM,"FC(F)(F)c1cccc(CSSSCc2cccc(C(F)(F)F)c2)c1 [ACEA100117, Di(m-trifluoromethylbenzyl)trisulfide]",41 µM,> 50 µM,
1.15 µM,"Clc1ccc(CSSSCc2ccc(Cl)cc2)cc1 [ACEA100118, Di(p-chlorobenzyl)trisulfide]",2.3 µM,> 50 µM,
12.4 µM,"Clc1ccccc1CSSSCc1ccccc1Cl [ACEA100115, Di(o-chlorobenzyl)trisulfide]",1.06 µM,> 50 µM,

SMILES,IC50 [1],IC50 [2],IC50 [3],Effect on HepG2 cell proliferation (cell index) ([3]; within the exposing dose range (1.5625-100 μM))
"Fc1ccc(CSSSCc2ccc(F)cc2)cc1 [ACEA100108, Di(p-fluorobenzyl)trisulfide]",19 µM,3.05 µM,> 50 µM,
"c1ccc(CSSSCc2ccccc2)cc1 [DBTS, Dibenzyl trisulfide]",2.55 µM,2.4 µM,> 50 µM,did not demonstrate anti-proliferation ability; also recorded: exhibits no inhibition effect on HepG2 cell proliferation and no cytotoxic effect
